The nature of data set [1]: Dose-escalating intravenous infusion study in male Beagle dogs (plasma PK). Type of data set: in vivo. Conditions: dog. How it is done: • Study Animals: Four male non-naïve Beagle dogs were released by Xenometrics for study use on Apr. 20, 2017. The animals were fed Harlan Teklad® Global 25% Protein Certified Dog Diet 2025C ad libitum throughout the study (except for brief periods during in-life procedures when it was • Dosing: Animals were dosed via intravenous (IV) infusion (via jugular vein) for 4 hours (h) [±5 minutes (min)].
[…] All blood samples were collected within 10 minutes of the target time and processed per protocol. Bioanalytical results indicated tegavivint was present in all plasma samples.
The pharmacokinetic parameters were determined for BC-2059 following the final 15 mg/kg infusion of the drug over 4 h.

Data set [2] deals with bleomycin-induced idiopathic pulmonary fibrosis (IPF). Kind of data set: Bleomycin-induced IPF mouse model: total lung collagen content (Hydroxyproline Assay). Type of data set: in vivo, C57BL/6 male mice. How it is done: The purpose of this experiment was to investigate tegavivint nanosuspension in a mouse model of bleomycin-induced idiopathic pulmonary fibrosis (IPF). Test articles were as follows:
Murine model of pulmonary fibrosis was induced by intratracheally (IT) injected bleomycin (APP Pharmaceuticals, Schaumburg, IL). One dose of 0.025 U bleomycin dissolved in 50 microliters of Saline 0.9%, or PBS as control was administered to each animal on day 0.
Tegavivint nanosuspension was applied to Group 3 in the form of aerosols, through the method of whole body exposure. The mice were placed inside a plastic box. This box was sealed and connected by one of its sides to the outlet of the nebulizer device, and on the other side to a system of closed water. The whole procedure was carried out inside the fume hood of the animal room. In each treatment session, 5 ml of 25 mg/ml Tegavivint (125 mg) was nebulized over 15 min to each group of 4-5 mice in the chamber. […]
On Day 21 all animals were sacrificed and lungs were harvested. Total lung collagen content was evaluated using the Hydroxyproline Assay as previously described (Morales-Nebreda L, et al. AJRCMB 2015). […] The resulting pellet was resuspended in 1 ml of 0.5 M NaOH and Sirius red staining was quantified spectrophotometrically (540 nm) using a colorimetric plate reader (Bio-Rad, Hercules, CA).

[3] abbreviates: 15 mg/kg 4 h IV infusion, individual animals, 15 mg/kg.

Each structure is given as a SMILES string. Where “and” joins values, the source holds several entries; their conditions need not be identical. Equal values may be shown once.

`C[C@@H]1C[C@H](C)CN(S(=O)(=O)c2ccc3c(c2)C(=NO)c2cc(S(=O)(=O)N4C[C@H](C)C[C@H](C)C4)ccc2C3=NO)C1` [BC2059, tegavivint]: in data set [1] (setting [3]), the “Plasma BC-2059, 4 h” value was 1310 ng/mL and 1320 ng/mL and 1150 ng/mL; the “Plasma BC-2059, 12 h” value is 916.0 ng/mL and 1050 ng/mL and 777 ng/mL; the “Plasma BC-2059, 24 h” value is 1120 ng/mL (2×) and 1070 ng/mL; the “Plasma BC-2059, 36 h” value is 834 ng/mL and 931 ng/mL and 708 ng/mL. Moreover, in data set [1] (setting [3]), the “Plasma BC-2059, 48 h” value is 663 ng/mL and 656 ng/mL and 647 ng/mL; the “Plasma BC-2059, 72 h” value is 511 ng/mL and 480 ng/mL and 524 ng/mL; the “Plasma BC-2059, 96 h” value was 360 ng/mL and 310 ng/mL and 364 ng/mL; the “Plasma BC-2059, 120 h” value was 321 ng/mL and 262 ng/mL and 281 ng/mL. In data set [1] (prior to Dose 6 (15 mg/kg 4 h IV infusion), individual animals, 15 mg/kg), the “Plasma BC-2059, Predose” value was 257 ng/mL and 404 ng/mL and 309 ng/mL and 284 ng/mL. Further, the concentration at 4 h in data set [1] (male, Beagle, plasma, iv, 15 mg/kg, 15 mg/kg 4 h IV infusion, individual animals, read-out: Plasma BC-2059, 4 h) stood at 1600 ng/mL. Further, the concentration at 12 h in data set [1] (male, Beagle, plasma, iv, 15 mg/kg, 15 mg/kg 4 h IV infusion, individual animals, read-out: Plasma BC-2059, 12 h) was found to be 784 ng/mL. Besides, the concentration at 24 h in data set [1] (male, Beagle, plasma, iv, 15 mg/kg, 15 mg/kg 4 h IV infusion, individual animals, read-out: Plasma BC-2059, 24 h) was determined as 723 ng/mL. In data set [1] (male, Beagle, plasma, iv, 15 mg/kg, 15 mg/kg 4 h IV infusion, individual animals, read-out: Plasma BC-2059, 36 h), the concentration at 36 h amounted to 674 ng/mL. Also, the concentration at 48 h in data set [1] (male, Beagle, plasma, iv, 15 mg/kg, 15 mg/kg 4 h IV infusion, individual animals, read-out: Plasma BC-2059, 48 h) was 664 ng/mL. In addition, the concentration at 72 h in data set [1] (male, Beagle, plasma, iv, 15 mg/kg, 15 mg/kg 4 h IV infusion, individual animals, read-out: Plasma BC-2059, 72 h) came to 393 ng/mL. In addition, in data set [1] (male, Beagle, plasma, iv, 15 mg/kg, 15 mg/kg 4 h IV infusion, individual animals, read-out: Plasma BC-2059, 96 h), the concentration at 96 h is 277 ng/mL. Also, in data set [1] (male, Beagle, plasma, iv, 15 mg/kg, 15 mg/kg 4 h IV infusion, individual animals, read-out: Plasma BC-2059, 120 h), the concentration at 120 h stood at 228 ng/mL. In addition, the maximum concentration (Cmax) in data set [1] (male, Beagle, plasma, 15 mg/kg IV over 4 h, mean, n = 4 males) is 1340 ± 187 ng/mL. Moreover, the AUC(0-t) in data set [1] (male, Beagle, plasma, 15 mg/kg IV over 4 h, mean, n = 4 males, read-out: AUC0-120 h) is 73500 ng·h/mL. Moreover, the half-life in data set [1] (male, Beagle, plasma, 15 mg/kg IV over 4 h, mean, n = 4 males, read-out: T½ (converted)) is 53 h. Further, in data set [2] (Group 3, inhaled), the “effect on total lung collagen content after bleomycin injury” value is “reversed this change”. Besides, in data set [2] (Group 3: IT bleomycin Day 0, 5 ml of 25 mg/ml tegavivint aerosol BID Day 5-21, Day 21, individual animals), the Hydroxyproline was 70.016 μg/half lung and 39.44 μg/half lung and 45.68 μg/half lung and 58.784 μg/half lung and 64.296 μg/half lung.

(Values after patent US12246010B2, “Formulations of tegavivint and related compounds” (Iterion Therapeutics, Inc., priority 2018, dated 2025).)
